# From ChEMBL document CHEMBL1127922, “Synthesis and pharmacological evaluation of vinyl sulfone based anticancer agents” (Bioorg Med Chem Lett, 1994)
# Tests used:
# [1] = In vitro toxicity against ras transformed 3LL cell lines was determined; format: cell-based; settings: ras transformed 3LL cells; read-out: LC50 (the source's name)
# [2] = (§1) Ratio of LC50(NRKE) to LC50(N/4.2-NRK ) expressed as differential induces(DI) was determined; format: ADME; settings: rat, NRKE cells and N/4.2-NRK cells
# [3] = In vitro toxicity against ras transformed K/1-NRK cell lines was determined; settings: rat, ras transformed K/1-NRK cells; read-out: LC50 (the source's name)
# MCF7 = test: In vitro cytotoxicity in human tumor breast carcinoma MCF-7 cell lines; format: functional
# [4] = In vitro toxicity against ras transformed H/1.2-NRK cell lines was determined; settings: rat, ras transformed H/1.2-NRK cells; read-out: LC50 (the source's name)
# Malme-3M = test: In vitro cytotoxicity in human tumor melanoma MALME-3M cell lines; format: functional
# [5] = Total number of toxic deaths of mice to the total number of mice tested was determined at a dose of 33 mg/kg; 0/8; format: ADME, organism-based; design: dose 33 mg/kg; settings: mouse, in vivo
# A549 = test: In vitro cytotoxicity in human tumor lung carcinoma A-549 cell lines; format: functional
# [6] = Total number of toxic deaths of mice to the total number of mice tested was determined at a dose of 11 mg/kg; 0/8; format: ADME, organism-based; design: dose 11 mg/kg; settings: mouse, in vivo
# [7] = (§2) Ratio of LC50(NRKE) to LC50(H/1.2-NRK) expressed as differential induces(DI) was determined; format: ADME; settings: rat, NRKE cells and H/1.2-NRK cells
# [8] = In vitro toxicity against ras transformed N/4.2-NRK cell lines was determined; settings: rat, ras transformed N/4.2-NRK cells; read-out: LC50 (the source's name)
# Mus musculus [9] = test: In vivo inhibitory activity against HT-29 colon cells at maximally tolerated dose(MTD) of 33 mg/kg in mice; format: functional
# [10] = In vitro toxicity against ras transformed NRKE cell lines was determined; format: cell-based; settings: rat, NRKE cells; read-out: LC50 (the source's name)
# Mus musculus [11] = test: In vivo inhibitory activity against HT-29 colon cells at maximally tolerated dose(MTD) of 11 mg/kg in mice; format: functional
# SK-MEL-5 = test: In vitro cytotoxicity in human tumor melanoma SK-MEL5c ell lines; format: functional
# [12] = Total number of toxic deaths of mice to the total number of mice tested was determined at a dose of 100 mg/kg; 1/8; format: ADME, organism-based; design: dose 100 mg/kg; settings: mouse, in vivo
# [13] = as §2; format: functional
# [14] = Ratio of LC50(NRKE) to LC50(K/1-NRK) expressed as differential induces(DI) was determined; format: functional
# [15] = as §1; format: functional
# Mus musculus [16] = test: In vivo inhibitory activity against HT-29 colon cells at maximally tolerated dose(MTD) of 100 mg/kg in mice; format: functional
# [17] = Ratio of LC50(NRKE) to LC50(3LL) expressed as differential induces(DI) was determined; format: functional
# Mus musculus [18] = test: In vivo inhibitory activity against HT-29 colon cells at maximally tolerated dose(MTD) of 10 mg/kg in mice; format: functional
# [19] = Total number of toxic deaths of mice to the total number of mice tested was determined at a dose of 3 mg/kg; 0/8; format: ADME, organism-based; design: dose 3 mg/kg; settings: mouse, in vivo
# [20] = Total number of toxic deaths of mice to the total number of mice tested was determined at a dose of 10 mg/kg; 0/8; format: ADME, organism-based; design: dose 10 mg/kg; settings: mouse, in vivo
# Mus musculus [21] = test: In vivo inhibitory activity against HT-29 colon cells at maximally tolerated dose(MTD) of 3 mg/kg in mice; format: functional
# HT-29 = test: In vitro cytotoxicity in human tumor colon adenocarcinoma HT-29 cell lines; format: functional
Compound,CC50 [1],CC50 [3],ED50 (MCF7),CC50 [4],ED50 (Malme-3M),ED50 (A549),CC50 [8],CC50 [10],ED50 (SK-MEL-5),further results
C=C(CN(CC(=C)S(C)(=O)=O)C1CC(C(C)(C)C)CCC1O)S(C)(=O)=O (stereo not given),800 nM,600 nM,3.3e-07 M l-1,2500 nM,4.2e-06 M l-1,1.3e-06 M l-1,1400 nM,2400 nM,4.6e-07 M l-1,selectivity ratio [2]: 0.6; Toxic deaths [5]: 0; Toxic deaths [6]: 0; selectivity ratio [7]: 1; inhibition in vivo at 33 mg/kg (Mus musculus [9]): 0%; inhibition in vivo at 11 mg/kg (Mus musculus [11]): 0%
C=C(CNC1CC(C(C)(C)C)CCC1O)S(C)(=O)=O (stereo not given),–,–,4.7e-07 M l-1,–,6e-07 M l-1,6.7e-07 M l-1,–,–,1.9e-07 M l-1,–
C=C(CN(C)C1CC(C(C)(C)C)CCC1O)S(C)(=O)=O (stereo not given),–,–,1.7e-07 M l-1,–,4.8e-07 M l-1,1.4e-05 M l-1,–,–,5.6e-07 M l-1,–
C=C(CN1C(=O)OC2CCC(C(C)(C)C)CC21)S(C)(=O)=O (stereo not given),3100 nM,2600 nM,2.7e-06 M l-1,4700 nM,1.1e-05 M l-1,2.9e-05 M l-1,5000 nM,4400 nM,1.3e-06 M l-1,Toxic deaths [12]: 1; Ratio [13]: 0.9; Ratio [14]: 1.7; Toxic deaths [5]: 0; Ratio [15]: 0.9; inhibition in vivo at 100 mg/kg (Mus musculus [16]): 0%; inhibition in vivo at 33 mg/kg (Mus musculus [9]): 0%; Ratio [17]: 1.4
C=C(CN1COC2CCC(C(C)(C)C)CC21)S(C)(=O)=O (stereo not given),500 nM,500 nM,2.4e-07 M l-1,2100 nM,1e-06 M l-1,1.2e-06 M l-1,1800 nM,1400 nM,9.6e-07 M l-1,inhibition in vivo at 10 mg/kg (Mus musculus [18]): 0%; Ratio [13]: 0.6; Toxic deaths [19]: 0; Ratio [15]: 0.8; Toxic deaths [20]: 0; inhibition in vivo at 3 mg/kg (Mus musculus [21]): 0%
C=C(CCl)S(C)(=O)=O,–,–,6.5e-06 M l-1,–,6.5e-06 M l-1,1.9e-05 M l-1,–,–,3.2e-06 M l-1,ED50 (HT-29): 2.2e-06 M l-1
CC(C)(C)C1CCC(O)C(N)C1 (stereo not given),–,–,0.00026 M l-1,–,> 100000 nM,0.00016 M l-1,–,–,0.00045 M l-1,ED50 (HT-29): > 100000 nM
